Experimental data taken from publication PMC9061999, “Application of the Adverse Outcome Pathway Concept to In Vitro Nephrotoxicity Assessment: Kidney Injury due to Receptor-Mediated Endocytosis and Lysosomal Overload as a Case Study” (Frontiers in Toxicology, 2022).

Tested on: NRK-52E cells
Assay: LAMP-1 immunofluorescence (KE1, disturbance of lysosomal function)
Format: cell-based, rat
Conditions: for BMC10, KE1: in vitro POD from KE dose-response, LAMP-1 intensity, NRK-52E, 24 h treatment, n = 3; for MOE, KE1: margin of exposure: BMC10 in NRK-52E vs rat plasma/serum concentration (cmax or css)
Experimental: For immunocytochemistry experiments, cells were seeded into 8-well chamber slides (Ibidi) at a density of 140 cells per µL in 300 µL growth medium and were allowed to grow for 48 h (NRK-52E) or 10 d (RPTEC/TERT1) respectively. For treatment, stock solutions (1,000 µM) of compounds dissolved in growth medium were freshly prepared and serial dilutions were made before exposure of cells for 24 h. After treatment, cells were washed twice with 150 µL PBS and fixed with 150 µL 4% paraformaldehyde in 1 x PBS for 10 min at room temperature. After fixation, cells were washed 10 min with 150 µL PBS on an orbital shaker followed by permeabilization with 150 µL 0.2% Triton X-100 in 1 x PBS for 5 min at room temperature on an orbital shaker. The permeabilized cells were washed twice with 1 x PBS (150 µL) for 10 min at room temperature on an orbital shaker and then incubated with 150 µL 5% BSA dissolved in 1 x PBS for 1 h at room temperature to block unspecific binding sites. After blocking, 100 µL primary antibody diluted 1:100 in 1% BSA in 1 x PBS were directly pipetted onto the cells and incubated overnight at 4°C. The following antibodies were employed for NRK-52E cells: Anti-LAMP-1 monoclonal IgG1 kappa mouse antibody (Santa Cruz; sc-20011), anti-Cathepsin D mouse monoclonal IgG2 kappa antibody (Santa Cruz; sc-377124); for RPTEC/TERT1 cells: Anti-LAMP-2 monoclonal mouse antibody (Santa Cruz; sc-18822), anti-Cathepsin D mouse monoclonal IgG2b kappa (Novus Biologicals; NBP1-04278); for both cell lines anti-megalin mouse monoclonal IgG1 antibody (Santa Cruz, sc-515772).
After incubation with primary antibody, cells were washed three times for 15 min with 0.2% Tween in 1 x PBS (150 µL) on an orbital shaker. Cells were incubated for 1 h at room temperature with 100 µL CFL 488-conjugated mouse IgG kappa binding protein (1:50) (m-IgGκ BP-CFL 488; Santa Cruz, sc-516176). After incubation the cells were washed three times for 15 min with 0.2% Tween in 1 x PBS on an orbital shaker and once with 150 µL sterile water. […] To preserve fluorescence 50–100 µL DAPI mounting medium (Vectashield®; Vectorlab, Biozol) was added to the cells and chamber slides were stored at 4°C in the dark until image acquisition.
Images were taken with a TCS SP5 II confocal microscope with an HCX PL APO lambda blue 63.0 × 1.40 OIL UV objective (Leica Microsystems, Wetzlar, GER) (n = 10 cells/treatment group). […] Before quantification, images were blinded and randomized. Quantification of fluorescence intensity was performed using NIH Image® software. […] The mean values of the pixel intensities were automatically calculated by the software and imported in Excel for further processing.

| Substance | BMC10, KE1 [µM] | MOE, KE1 |
| --- | --- | --- |
| Polymyxin B | 13.7 | 1.9 – 2.0 |
| Colistin | 36.2 | 3.5 – 7.1 |
